# Values joined by “and” are separate entries in the source; they are usually repeats but may differ in a detail not shown here. Identical values can stand only once. Like-named read-outs stand apart in the source and are kept apart here. Marks after values point to notes of the source that are not given here.
# Experiments:
# [1] = tested on: laying hens; test: Yolk cholesterol contents of eggs from statin-treated laying hens; assay type: in vivo, White Leghorn hens
# Method: Agric. […] Hens were treated as described in Example 1. […] The eggs were hard-cooked, and the yolks were separated, weighed, and crumbled. […] Agric. […] Egg homogenate filtrates were analyzed for cholesterol as described in Rudel, L. L. and Morris, M. D., J. Lipid Res. 14:364-366 (1973).
# [2] = tested on: laying hens; test: Egg production, egg weights and yolk weights of statin-treated laying hens; assay type: in vivo, White Leghorn hens
# Method: Hens were treated as described in Example 1. Egg yolk was weighed as outlined in Example 2.
# [3] = tested on: apolipoprotein B (apoB) mRNA; test: Northern blot of liver mRNA: apoB; assay type: in vivo, White Leghorn hens; conditions: normalized by 18S rRNA; day 35
# Source text: Endocrinol. […] Endocrinol.
# [4] = tested on: laying hens; conditions: 0.03% or 0.06% of diet; day 35
# [5] = tested on: laying hens; conditions: 0.03% or 0.06% of diet; day 35; remark: listed apart in the source
# [6] = tested on: plasma VLDL particles; conditions: day 35
# [7] = tested on: plasma VLDL particles; conditions: day 35; remark: listed apart in the source
# [8] = tested on: microsomal triglyceride transport protein (MTP) large subunit mRNA; conditions: normalized by 18S rRNA; day 35
# [9] = tested on: laying hens; test: Liver cholesterol content; conditions: day 35
# [10] = Liver weight of statin-treated laying hens; conditions: day 35
# [11] = 0.06% of diet, week 5 (maximal reduction for simvastatin, lovastatin)
# [12] = 0.03% of diet, Overall (weeks 1-5)
# [13] = 0.06% of diet, Overall (weeks 1-5)
smiles,measurement,setting,value
CC[C@H](C)C(=O)O[C@H]1C[C@@H](C)C=C2C=C[C@H](C)[C@H](CC[C@@H]3C[C@@H](O)CC(=O)O3)[C@H]21 [Lovastatin],"Yolk cholesterol content, mg cholesterol/g yolk","[1]; 0.03% of diet, Week 0",11.0 ± 0.2^a mg cholesterol/g yolk
same,"Yolk cholesterol content, mg cholesterol/yolk","[1]; 0.03% of diet, Week 0",195.7 ± 6.8^a mg cholesterol/yolk
same,"Yolk cholesterol content, mg cholesterol/g yolk","[1]; 0.03% of diet, Week 1",10.7 ± 0.2^b mg cholesterol/g yolk
same,"Yolk cholesterol content, mg cholesterol/yolk","[1]; 0.03% of diet, Week 1",192.2 ± 6.5^a mg cholesterol/yolk
same,"Yolk cholesterol content, mg cholesterol/g yolk","[1]; 0.03% of diet, Week 2","11.1 ± 0.2^a,b mg cholesterol/g yolk"
same,"Yolk cholesterol content, mg cholesterol/yolk","[1]; 0.03% of diet, Week 2",193.8 ± 6.6^a mg cholesterol/yolk
same,"Yolk cholesterol content, mg cholesterol/g yolk","[1]; 0.03% of diet, Week 3",10.8 ± 0.2^b mg cholesterol/g yolk
same,"Yolk cholesterol content, mg cholesterol/yolk","[1]; 0.03% of diet, Week 3",192.3 ± 5.1^a mg cholesterol/yolk
same,"Yolk cholesterol content, mg cholesterol/g yolk","[1]; 0.03% of diet, Week 4","10.9 ± 0.2^a,b mg cholesterol/g yolk"
same,"Yolk cholesterol content, mg cholesterol/yolk","[1]; 0.03% of diet, Week 4",193.9 ± 4.2^a mg cholesterol/yolk
same,"Yolk cholesterol content, mg cholesterol/g yolk","[1]; 0.03% of diet, Week 5",10.8 ± 0.1^b mg cholesterol/g yolk
same,"Yolk cholesterol content, mg cholesterol/yolk","[1]; 0.03% of diet, Week 5","193.6 ± 4.0^a,b mg cholesterol/yolk"
same,"Yolk cholesterol content, mg cholesterol/g yolk","[1]; 0.06% of diet, Week 0",10.9 ± 0.1^a mg cholesterol/g yolk
same,"Yolk cholesterol content, mg cholesterol/yolk","[1]; 0.06% of diet, Week 0",197.8 ± 4.3^a mg cholesterol/yolk
same,"Yolk cholesterol content, mg cholesterol/g yolk","[1]; 0.06% of diet, Week 1",10.7 ± 0.1^b mg cholesterol/g yolk
same,"Yolk cholesterol content, mg cholesterol/yolk","[1]; 0.06% of diet, Week 1","185.5 ± 8.4^a,b mg cholesterol/yolk"
same,"Yolk cholesterol content, mg cholesterol/g yolk","[1]; 0.06% of diet, Week 2","10.8 ± 0.1^b,c mg cholesterol/g yolk"
same,"Yolk cholesterol content, mg cholesterol/g yolk","[1]; 0.06% of diet, Week 3","10.5 ± 0.1^b,c mg cholesterol/g yolk"
same,"Yolk cholesterol content, mg cholesterol/yolk","[1]; 0.06% of diet, Week 3","184.6 ± 5.1^a,b mg cholesterol/yolk"
same,"Yolk cholesterol content, mg cholesterol/g yolk","[1]; 0.06% of diet, Week 4","10.9 ± 0.2^a,b mg cholesterol/g yolk"
same,"Yolk cholesterol content, mg cholesterol/yolk","[1]; 0.06% of diet, Week 4","187.1 ± 7.2^a,b mg cholesterol/yolk"
same,"Yolk cholesterol content, mg cholesterol/g yolk","[1]; 0.06% of diet, Week 5",10.8 mg cholesterol/g yolk and 10.8 ± 0.1^b mg cholesterol/g yolk
same,"Yolk cholesterol content, mg cholesterol/yolk","[1]; 0.06% of diet, Week 5","186.9 mg cholesterol/yolk and 186.9 ± 4.3^a,b mg cholesterol/yolk"
same,yolk cholesterol reduction from control on a per yolk (egg) basis,[1]; [11],7%
same,yolk cholesterol reduction from control per g of yolk (mg/g basis),[1]; [11],7%
same,"Egg weight, g",[2]; [12],65.0 ± 1.4^a (155) g
same,"Hen-day egg production, %",[2]; [12],88.6 ± 2.4^a (155) %
same,"Yolk weight, g",[2]; [12],17.7 ± 0.2^a (25) g
same,"Egg weight, g","[2]; 0.03% of diet, Week 1",64.9 ± 0.7^a g
same,"Hen-day egg production, %","[2]; 0.03% of diet, Week 1",91.4 ± 1.2^a %
same,"Yolk weight, g","[2]; 0.03% of diet, Week 1",17.9 ± 0.7^a g
same,"Egg weight, g","[2]; 0.03% of diet, Week 2","64.3 ± 0.8^a,b g"
same,"Hen-day egg production, %","[2]; 0.03% of diet, Week 2",88.6 ± 1.0^a %
same,"Yolk weight, g","[2]; 0.03% of diet, Week 2",17.4 ± 0.8^a g
same,"Egg weight, g","[2]; 0.03% of diet, Week 3",65.1 ± 0.7^a g
same,"Hen-day egg production, %","[2]; 0.03% of diet, Week 3",85.7 ± 1.0^a %
same,"Yolk weight, g","[2]; 0.03% of diet, Week 3",17.8 ± 0.5^a g
same,"Egg weight, g","[2]; 0.03% of diet, Week 4",65.8 ± 0.6^a g
same,"Hen-day egg production, %","[2]; 0.03% of diet, Week 4",88.6 ± 1.8^a %
same,"Yolk weight, g","[2]; 0.03% of diet, Week 4",17.8 ± 0.4^a g
same,"Egg weight, g","[2]; 0.03% of diet, Week 5",64.7 ± 0.7^a g
same,"Hen-day egg production, %","[2]; 0.03% of diet, Week 5",88.6 ± 1.0^a %
same,"Yolk weight, g","[2]; 0.03% of diet, Week 5",17.8 ± 0.5^a g
same,"effect on production variables (egg production, egg weight, yolk weight)","[2]; 0.03% or 0.06% of diet, P>0.05",did not affect
same,"Egg weight, g",[2]; [13],63.8 ± 1.8^a (155) g
same,"Hen-day egg production, %",[2]; [13],88.6 ± 2.9^a (155) %
same,"Yolk weight, g",[2]; [13],17.4 ± 0.3^a (25) g
same,"Egg weight, g","[2]; 0.06% of diet, Week 1",62.6 ± 1.9^a g
same,"Hen-day egg production, %","[2]; 0.06% of diet, Week 1","88.6 ± 1.0^a,b %"
same,"Yolk weight, g","[2]; 0.06% of diet, Week 1",17.4 ± 1.0^a g
same,"Egg weight, g","[2]; 0.06% of diet, Week 2","64.0 ± 0.7^a,b g"
same,"Hen-day egg production, %","[2]; 0.06% of diet, Week 2","85.7 ± 1.5^a,b %"
same,"Yolk weight, g","[2]; 0.06% of diet, Week 2",17.3 ± 0.7^a g
same,"Egg weight, g","[2]; 0.06% of diet, Week 3",65.3 ± 1.1^a g
same,"Hen-day egg production, %","[2]; 0.06% of diet, Week 3",88.6 ± 1.0^a %
same,"Yolk weight, g","[2]; 0.06% of diet, Week 3",17.7 ± 0.6^a g
same,"Egg weight, g","[2]; 0.06% of diet, Week 4","63.3 ± 0.8^b,c g"
same,"Hen-day egg production, %","[2]; 0.06% of diet, Week 4",88.6 ± 1.8^a %
same,"Yolk weight, g","[2]; 0.06% of diet, Week 4","17.2 ± 0.9^a,b g"
same,"Egg weight, g","[2]; 0.06% of diet, Week 5","62.9 ± 0.8^a,b g"
same,"Hen-day egg production, %","[2]; 0.06% of diet, Week 5",91.4 ± 1.2^a %
same,"Yolk weight, g","[2]; 0.06% of diet, Week 5",17.3 ± 0.7^a g
same,"hepatic apoB mRNA, linear contrasts (P≦0.05)",[3],control>lovastatin
same,effect on plasma total cholesterol (plasma lipid variables),[4],did not significantly affect
same,effect on plasma triglycerides (plasma lipid variables),[5],did not significantly affect
same,Plasma VLDL particle Diameter nm,[6]; 0.03% of diet,"35.5 ± 0.1^a,b nm"
same,Plasma VLDL particle Diameter nm,[6]; 0.06% of diet,"34.8 ± 0.1^a,b nm"
same,Plasma VLDL composition: EC (esterified cholesterol),[7]; 0.03% of diet,"0.06 ± 0.01^a,b %"
same,Plasma VLDL composition: PC (phosphatidylcholine),[7]; 0.03% of diet,11.99 ± 0.18^b %
same,Plasma VLDL composition: PE (phosphatidylethanolamine),[7]; 0.03% of diet,3.76 ± 0.33^a %
same,Plasma VLDL composition: Protein,[7]; 0.03% of diet,17.37 ± 0.70^a %
same,Plasma VLDL composition: SM (sphingomyelin),[7]; 0.03% of diet,1.08 ± 0.31^a %
same,Plasma VLDL composition: TG (triglyceride),[7]; 0.03% of diet,62.78 ± 1.01^a %
same,Plasma VLDL composition: UC (unesterified cholesterol),[7]; 0.03% of diet,2.94 ± 0.11^a %
same,Plasma VLDL composition: EC (esterified cholesterol),[7]; 0.06% of diet,"0.08 ± 0.02^a,b %"
same,Plasma VLDL composition: PC (phosphatidylcholine),[7]; 0.06% of diet,12.07 ± 0.82^b %
same,Plasma VLDL composition: PE (phosphatidylethanolamine),[7]; 0.06% of diet,3.46 ± 0.93^a %
same,Plasma VLDL composition: Protein,[7]; 0.06% of diet,19.96 ± 1.32^a %
same,Plasma VLDL composition: SM (sphingomyelin),[7]; 0.06% of diet,0.66 ± 0.23^a %
same,Plasma VLDL composition: TG (triglyceride),[7]; 0.06% of diet,60.74 ± 1.22^a %
same,Plasma VLDL composition: UC (unesterified cholesterol),[7]; 0.06% of diet,3.03 ± 0.34^a %
same,"hepatic MTP large subunit mRNA, linear contrasts (P≦0.05)",[8],lovastatin>atorvastatin
same,Liver Cholesterol mg/g liver,[9]; 0.03% of diet,"3.0 ± 0.05^b,c mg/g liver"
same,Liver Cholesterol mg/liver,[9]; 0.03% of diet,95.7 ± 3.3^a mg/liver
same,Liver Cholesterol mg/g liver,[9]; 0.06% of diet,3.1 ± 0.07^b mg/g liver
same,Liver Cholesterol mg/liver,[9]; 0.06% of diet,90.2 ± 3.6^a mg/liver
same,Liver Weight g,[10]; 0.03% of diet,31.4 ± 1.4^b g
same,Liver Weight g/100 g BW,[10]; 0.03% of diet,"1.81 ± 0.09^a,b g/100 g BW"
same,Liver Weight g,[10]; 0.06% of diet,"28.8 ± 0.9^b,c g"
same,Liver Weight g/100 g BW,[10]; 0.06% of diet,1.76 ± 0.05^b g/100 g BW
